Data on 3 compounds can be found in patent US10933045B2, “Intranasal compositions for treatment of neurological and neurodegenerative diseases and disorders” (priority 2014, dated 2021).

The conditions of data set [1]: cited from earlier work.
The target of the next data set is acetylcholinesterase (Homo sapiens, UniProt P22303). Particulars: estimated (Gobburu et al. 2001); cited from earlier work.
The target of data set [2] is T1, sigma one receptor (Rattus norvegicus, UniProt Q9R0C9).
T1 construct: host or cells: rat brain
T1 sequence (Q9R0C9 whole entry): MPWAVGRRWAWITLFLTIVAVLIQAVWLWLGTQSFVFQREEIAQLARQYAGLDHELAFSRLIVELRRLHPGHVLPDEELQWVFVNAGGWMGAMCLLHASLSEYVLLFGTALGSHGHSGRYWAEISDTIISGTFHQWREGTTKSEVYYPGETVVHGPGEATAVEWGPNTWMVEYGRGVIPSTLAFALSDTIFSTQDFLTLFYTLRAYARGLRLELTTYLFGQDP
Particulars: read-out: dissociation constant (Kd); binding studies with rat brain; cited from earlier work.

The target of data set [3] is T1, sigma one receptor. Nature of the data set: Dextromethorphan binding studies with rat brain (Klein and Musacchio 1992).
For data set [4] the following is noted: assumed value from literature; cited from earlier work.
Setting [5] is: Alzheimer's disease patients, 2 mg i.v. dose (Hossain et al. 2002).

What is called Vz is a proportionality between amount in the body and measured concentration, not a real space. As usually defined, the pKd is the Kd on a negative log10 scale, so that one unit is a factor of ten.

pKd: −log10 of the molar value. Like-named read-outs stand apart in the source and are kept apart here.

Sequence of acetylcholinesterase (P22303 32-614): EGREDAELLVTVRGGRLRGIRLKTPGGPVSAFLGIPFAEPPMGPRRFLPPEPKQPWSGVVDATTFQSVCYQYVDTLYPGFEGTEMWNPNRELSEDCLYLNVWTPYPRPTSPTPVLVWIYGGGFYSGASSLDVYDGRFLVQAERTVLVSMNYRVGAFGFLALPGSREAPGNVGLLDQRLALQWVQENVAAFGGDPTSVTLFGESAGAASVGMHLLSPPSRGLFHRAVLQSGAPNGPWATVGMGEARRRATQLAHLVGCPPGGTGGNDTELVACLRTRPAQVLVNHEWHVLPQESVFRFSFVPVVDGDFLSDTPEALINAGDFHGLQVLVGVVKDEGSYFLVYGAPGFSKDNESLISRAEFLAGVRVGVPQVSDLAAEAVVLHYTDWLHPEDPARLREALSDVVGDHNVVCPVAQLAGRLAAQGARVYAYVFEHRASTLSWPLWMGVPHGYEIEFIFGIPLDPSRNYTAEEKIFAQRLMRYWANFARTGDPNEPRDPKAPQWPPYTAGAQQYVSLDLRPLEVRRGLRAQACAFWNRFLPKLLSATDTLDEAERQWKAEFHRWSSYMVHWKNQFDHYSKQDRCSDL

With `CCN(C)C(=O)Oc1cccc([C@H](C)N(C)C)c1` [rivastigmine, Rivastigmine], the “variation of intrinsic clearance (CL)” value in data set [1] (Alzheimer's disease patients (Hossain et al. 2002)) was “up to 4 fold”. Moreover, in data set [1] (setting [5]), the CL was 21.6 to 82.8 L/h and the Vz is 53.2 to 227 L.
On to `C[C@@H](c1cccc(O)c1)N(C)C` [NAP 226-90, 3-[(1S)-1-(dimethylamino)ethyl]phenol], for which the “potency, times less than rivastigmine” value on acetylcholinesterase is given as 10 times.
Take `COc1ccc2c(c1)[C@]13CCCC[C@@H]1[C@H](C2)N(C)CC3` [dextromethorphan]: the results for the pKd at sigma one receptor [2] and on sigma one receptor [3] were 7.70 and about 7.70, respectively. Further, in data set [4], the systemic clearance result is “about 23 mL/min/kg”.
